Earlier results, collected in patent publication US6432966B1, “Antiviral combinations” (SmithKline Beecham Corporation, priority 1999, dated 2002).

What was measured:
HBV [1] = settings: in vitro
Hepatitis B virus = settings: oral, woodchucks
HBV [2] = tested on: HBV

Row | Structure (SMILES) | anti-HBV activity (HBV [1]) | efficacy against Hepatitis B virus (Hepatitis B virus) | patients maintaining undetectable levels of virus (HBV [2]; through to the end of the second year) [%] | levels of viral replication in patients (HBV [2]; two year study)
1 | C=C1[C@H](CO)[C@@H](O)C[C@@H]1n1cnc2c(=O)[nH]c(N)nc21 [BMS-200475] | anti-HBV activity in vitro | effective against Hepatitis B virus in woodchucks | – | –
2 | Nc1ccn([C@@H]2CS[C@H](CO)O2)c(=O)n1 (relative stereo) [lamivudine, (2R,cis)-4-amino-1-(2-hydroxymethyl-1,3-oxathiolan-5-yl)-pyrimidin-2-one] | – | – | 52 | most patients showed substantially reduced levels of viral replication
